Results from patent publication US7309701B2, “Pyridazinone derivatives as pharmaceuticals and pharmaceutical compositions containing them” (Sanofi-Aventis Deutschland GmbH, priority 2002, dated 2007).

tested on: Tau protein; assay: Tau-phosphorylation: inhibition of phosphorylation of the Tau protein in adult rat cortex sections; format: cell-based; conditions: inhibition of Tau phosphorylation (Ser396/404, antibody AD2), 2 h incubation at 37° C.
Experimental: The compounds' activities were determined by measuring the inhibition of phosphorylation of the Tau protein in adult rat cortex sections. The cortex sections having a thickness of 300 μm were prepared from 8-10-week old male OFA rats (Iffa-Credo), sacrificed by decapitation. They were incubated in 5 ml of DMEM medium containing pyruvate and glucose 4.5 g/l at 37° C. for 40 min. The sections were then washed twice with the medium, distributed into microtubes (50 μl in 500 μl of medium with or without test compounds), and incubated at 37° C., with stirring. Two hours later, the experiment was stopped by centrifugation. The sections were washed, sonicated and centrifuged at 18300 g, for 15 min at 4° C. The concentration of proteins in supernatant was determined by a commercial assay (BCA Protein Assay, Pierce) based on the Lowry method. The samples, denatured beforehand for 10 min at 70° C., were separated on a 4-12% Bis-Tris vertical gel in the presence of MOPS-SDS buffer and electrotransferred onto nitrocellulose membrane. Immunolabeling was performed with their monoclonal antibody AD2 which specifically recognizes the phosphorylated epitopes Ser396/404 of the Tau protein. The immunoactive proteins were visualized by adding a second antibody directed against the mouse IgG's and coupled to peroxidase and a chemiluminescent substrate. The autoradiograms obtained were finally quantified using the ‘GeneTools’ software from Syngene (GeneGnome, Ozyme) in order to determine an IC50.

Question: For `O=C(NCc1ccccc1)c1cc(-c2ccc(O)cc2)n[nH]c1=O` [Example 19, N-benzyl-3-oxo-6-[4-(hydroxy)phenyl]-2,3-dihydropyridazine-4-carboxamide], which IC50 is on record?
Answer: 4100 nM

Question: Which IC50 does the source give for `O=C(NCc1ccc(Cl)cc1)c1cc(Cl)n[nH]c1=O` [Example 43, 6-Chloro-3-oxo-2,3-dihydro-pyridazine-4-carboxylic acid 4-chloro-benzylamide] here?
Answer: 2200 nM

tested on: not given; assay: not given; conditions: not given

Question: For `O=C(NCc1ccc(Cl)cc1Cl)c1cc(-c2ccccc2)n[nH]c1=O` [Example 1, N-(2,4-dichlorobenzyl)-3-oxo-6-phenyl-4-yl-2,3-dihydropyridazine-4-carboxamide], which melting point is on record?
Answer: ~ 258 °C

Question: Which melting point does the source give for `O=C(NCc1ccccc1)c1cc(-c2ccncc2)n[nH]c1=O` [Example 3, N-benzyl-3-oxo-6-pyridin-4-yl-2,3-dihydropyridazine-4-carboxamide] here?
Answer: 258 °C

Question: For `O=C(NCc1ccc(N2CCOCC2)cc1)c1cc(-c2ccncc2)n[nH]c1=O` [Example 17, N-(4-morpholin-4-ylbenzyl)-3-oxo-6-pyridin-4-yl-2,3-dihydropyridazine-4-carboxamide], which melting point is on record?
Answer: 252 °C

Question: Which melting point does the source give for `O=C(NCc1cccnc1)c1cc(-c2ccncc2)n[nH]c1=O` [Example 14, 3-oxo-6-pyridin-4-yl-N-(pyridin-3-ylmethyl)-2,3-dihydropyridazine-4-carboxamide] here?
Answer: 262 °C

Question: With `CCCCNC(=O)c1cc(-c2ccncc2)n[nH]c1=O` [Example 12, 3-oxo-6-pyridin-4-yl-N-(n-butyl)-2,3-dihydropyridazine-4-carboxamide] as the compound, how does the melting point read?
Answer: 209 °C

Question: For `O=C(NCc1ccccn1)c1cc(-c2ccncc2)n[nH]c1=O` [Example 15, 3-oxo-6-pyridin-4-yl-N-(pyridin-2-ylmethyl)-2,3-dihydropyridazine-4-carboxamide], which melting point is on record?
Answer: 242 °C

Question: Which melting point does the source give for `CCOC(=O)CCNC(=O)c1cc(-c2ccncc2)n[nH]c1=O` [Example 13, Ethyl 3-[(3-oxo-6-pyridin-4-yl-2,3-dihydropyridazine-4-carbonyl)amino]propionate] here?
Answer: 180 °C

Question: Which melting point does the source give for `O=C(NCc1cccc(C(F)(F)F)c1)c1cc(-c2ccncc2)n[nH]c1=O` [Example 9, 3-oxo-6-pyridin-4-yl-N-[3-(trifluoromethyl)benzyl]-2,3-dihydropyridazine-4-carboxamide] here?
Answer: 224 °C

Question: For `O=C(NCCc1ccc(Cl)cc1Cl)c1cc(-c2ccncc2)n[nH]c1=O` [Example 6, N-[2-(2,4-dichlorophenyl)ethyl]-3-oxo-6-pyridin-4-yl-2,3-dihydropyridazine-4-carboxamide], which melting point is on record?
Answer: 202 °C

target: human recombinant GSK-3β (Homo sapiens, UniProt P49841); assay: GSK-3β activity, AlphaScreen with primed glycogen synthase substrate peptide; format: biochemical; conditions: not given
Experimental: GSK-β activity was measured using human recombinant GSK-3β and a primed (pre-phosphorylated) substrate peptide (derived from glycogen synthase and containing the phosphorylation sites 3a, b, and c) on basis of the AlphaScreen technology in 384-well plate format (small volume plate, white, GREINER).

Sequence of human recombinant GSK-3β (P49841 whole entry): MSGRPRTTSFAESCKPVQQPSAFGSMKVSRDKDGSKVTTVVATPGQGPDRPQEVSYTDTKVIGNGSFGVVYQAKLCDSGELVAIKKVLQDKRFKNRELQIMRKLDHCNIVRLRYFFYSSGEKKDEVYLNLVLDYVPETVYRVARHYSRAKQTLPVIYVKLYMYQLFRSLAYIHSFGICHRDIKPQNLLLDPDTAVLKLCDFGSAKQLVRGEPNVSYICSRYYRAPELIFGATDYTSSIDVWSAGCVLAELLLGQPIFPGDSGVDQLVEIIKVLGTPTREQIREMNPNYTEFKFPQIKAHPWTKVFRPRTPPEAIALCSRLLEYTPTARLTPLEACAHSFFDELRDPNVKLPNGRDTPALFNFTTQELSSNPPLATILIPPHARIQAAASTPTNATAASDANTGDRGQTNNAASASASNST

Question: With `O=C(NCc1ccc(F)cc1F)c1cc(-c2ccncc2)n[nH]c1=O` [Example 117, 3-Oxo-6-pyridin-4-yl-2,3-dihydro-pyridazine-4-carboxylic acid 2,4-difluoro-benzylamide;compound withtrifluoro-acetic acid] as the compound, how does the IC50 read?
Answer: 65 nM

Question: For `CCCCNc1nccc(-c2cc(C(=O)NCCCc3cccnc3)c(=O)[nH]n2)n1` [Example 220, 6-(2-Butylamino-pyrimidin-4-yl)-3-oxo-2,3-dihydro-pyridazine-4-carboxylic acid (3-pyridin-3-yl-propyl)-amide], which IC50 is on record?
Answer: 36 nM

Question: For `O=C(NCc1ccc(Cl)cc1)c1cc(-c2ccc(O)c(F)c2)n[nH]c1=O` [Example 183, 6-(3-Fluoro-4-hydroxy-phenyl)-3-oxo-2,3-dihydro-pyridazine-4-carboxylic acid 4-chloro-benzylamide], which IC50 is on record?
Answer: 39 nM

same assay, conditions: human recombinant GSK-3β, 10 μM ATP, 60 min at room temperature, AlphaScreen; read-out: IC50

Question: With `CCNc1nccc(-c2cc(C(=O)NCc3ccc(Cl)cc3)c(=O)[nH]n2)n1` [Example 190, 6-(2-Ethylamino-pyrimidin-4-yl)-3-oxo-2,3-dihydro-pyridazine-4-carboxylic acid 4-chloro-benzylamide] as the compound, how does the IC50 read?
Answer: > 1000 nM

Question: With `CCCCNc1nccc(-c2cc(C(=O)NCc3cccnc3)c(=O)[nH]n2)n1` [Example 219, 6-(2-Butylamino-pyrimidin-4-yl)-3-oxo-2,3-dihydro-pyridazine-4-carboxylic acid(pyridin-3-ylmethyl)-amide] as the compound, how does the IC50 read?
Answer: 29 nM

Question: For `O=C(NCc1ccc(N2CCOCC2)cc1)c1cc(-c2ccncc2)n[nH]c1=O` [Example 17, N-(4-morpholin-4-ylbenzyl)-3-oxo-6-pyridin-4-yl-2,3-dihydropyridazine-4-carboxamide], which IC50 is on record?
Answer: 251 nM

Question: With `O=C(NCc1cccnc1)c1cc(-c2ccncc2)n[nH]c1=O` [Example 14, 3-oxo-6-pyridin-4-yl-N-(pyridin-3-ylmethyl)-2,3-dihydropyridazine-4-carboxamide] as the compound, how does the IC50 read?
Answer: 97 nM

Question: For `O=C(NCc1ccc(C(F)(F)F)cc1)c1cc(-c2ccncc2)n[nH]c1=O` [Example 112, 3-Oxo-6-pyridin-4-yl-2,3-dihydro-pyridazine-4-carboxylic acid 4-trifluoromethyl-benzylamide;compound withtrifluoro-acetic acid], which IC50 is on record?
Answer: 123 nM

Question: For `CNc1cc(-c2cc(C(=O)NCc3ccc(Cl)cc3)c(=O)[nH]n2)ccn1` [Example 206, 6-(2-Methylamino-pyridin-4-yl)-3-oxo-2,3-dihydro-pyridazine-4-carboxylic acid 4-chloro-benzylamide], which IC50 is on record?
Answer: 30 nM

Question: Which IC50 does the source give for `O=C(NCc1ccc(Cl)cc1)c1cc(-c2ccnc(NCCN3CCOCC3)n2)n[nH]c1=O` [Example 175, 6-[2-(2-Morpholin-4-yl-ethylamino)-pyrimidin-4-yl]-3-oxo-2,3-dihydro-pyridazine-4-carboxylic acid 4-chloro-benzylamide;compound withtrifluoro-acetic acid] here?
Answer: 17 nM

Question: For `CCCCNc1nccc(-c2cc(C(=O)NCCCN3CCN(C)CC3)c(=O)[nH]n2)n1` [Example 218, 6-(2-Butylamino-pyrimidin-4-yl)-3-oxo-2,3-dihydro-pyridazine-4-carboxylic acid [3-(4-methyl-piperazin-1-yl)-propyl]-amide;compound withtrifluoro-acetic acid], which IC50 is on record?
Answer: 22 nM

Question: For `COc1cc(-c2cc(C(=O)NCCCc3cccnc3)c(=O)[nH]n2)ccc1O` [Example 49, 6-(4-Hydroxy-3-methoxy-phenyl)-3-oxo-2,3-dihydro-pyridazine-4-carboxylic acid (3-pyridin-3-yl-propyl)-amide], which IC50 is on record?
Answer: 1 nM

Question: With `Cc1cc(-c2cc(C(=O)NCc3ccc(C(=O)O)cc3)c(=O)[nH]n2)cc(C)c1O` [Example 32, 4-({[6-(4-Hydroxy-3,5-dimethyl-phenyl)-3-oxo-2,3-dihydro-pyridazine-4-carbonyl]-amino}-methyl)-benzoic acid] as the compound, how does the IC50 read?
Answer: 5 nM

Question: Which IC50 does the source give for `COc1cc(-c2cc(C(=O)NCc3ccc(C(=O)O)cc3)c(=O)[nH]n2)ccc1O` [Example 225, 4-({[6-(4-Hydroxy-3-methoxy-phenyl)-3-oxo-2,3-dihydro-pyridazine-4-carbonyl]-amino}-methyl)-benzoic acid] here?
Answer: 9 nM

Question: Which IC50 does the source give for `O=C(NCc1ccc(Cl)cc1F)c1cc(-c2ccncc2)n[nH]c1=O` [Example 116, 3-Oxo-6-pyridin-4-yl-2,3-dihydro-pyridazine-4-carboxylic acid 4-chloro-2-fluoro-benzylamide;compound withtrifluoro-acetic acid] here?
Answer: 250 nM

Question: Which IC50 does the source give for `O=C(Nc1ccncc1)c1ccc(CNC(=O)c2cc(-c3ccncc3)n[nH]c2=O)cc1` [Example 156, 3-Oxo-6-pyridin-4-yl-2,3-dihydro-pyridazine-4-carboxylic acid 4-(pyridin-4-ylcarbamoyl)-benzylamide;compound withtrifluoro-acetic acid] here?
Answer: 86 nM

Question: For `C[C@@H](Nc1nccc(-c2cc(C(=O)NCCCc3ccccc3)c(=O)[nH]n2)n1)c1ccccc1` [Example 215, R-3-Oxo-6-[2-(1-phenyl-ethylamino)-pyrimidin-4-yl]-2,3-dihydro-pyridazine-4-carboxylic acid(3-phenyl-propyl)-amide], which IC50 is on record?
Answer: 24 nM

Question: Which IC50 does the source give for `O=C(NCc1ccc(Br)cc1)c1cc(-c2ccncc2)n[nH]c1=O` [Example 75, 3-Oxo-6-pyridin-4-yl-2,3-dihydro-pyridazine-4-carboxylic acid 4-bromo-benzylamide;compound withtrifluoro-acetic acid] here?
Answer: 380 nM

Question: Which IC50 does the source give for `O=C(NCc1ccc(Cl)cc1)c1cc(-c2cc(F)c(O)c(F)c2)n[nH]c1=O` [Example 182, 6-(3,5-Difluoro-4-hydroxy-phenyl)-3-oxo-2,3-dihydro-pyridazine-4-carboxylic acid 4-chloro-benzylamide] here?
Answer: 170 nM

Question: With `O=C(NCCCc1cccnc1)c1cc(-c2ccc(O)cc2)n[nH]c1=O` [Example 164, 6-(4-Hydroxy-phenyl)-3-oxo-2,3-dihydro-pyridazine-4-carboxylic acid (3-pyridin-3-yl-propyl)-amide] as the compound, how does the IC50 read?
Answer: 7 nM

Question: Which IC50 does the source give for `O=C(NCc1ccc(Cl)cc1)c1cc(-c2ccc(O)c(Cl)c2)n[nH]c1=O` [Example 180, 6-(3-Chloro-4-hydroxy-phenyl)-3-oxo-2,3-dihydro-pyridazine-4-carboxylic acid 4-chloro-benzylamide] here?
Answer: 227 nM

Question: With `Cc1cc(-c2cc(C(=O)NCc3ccc(Cl)cc3)c(=O)[nH]n2)ccc1O` [Example 155] as the compound, how does the IC50 read?
Answer: 10300 nM

Question: Which IC50 does the source give for `COc1cc(-c2cc(C(=O)NCc3ccc(Cl)cc3)c(=O)[nH]n2)ccc1O` [Example 41, 6-(4-Hydroxy-3-methoxy-phenyl)-3-oxo-2,3-dihydro-pyridazine-4-carboxylic acid 4-chloro-benzylamide] here?
Answer: 2300 nM

Question: With `Cc1cc(-c2cc(C(=O)NCCCc3cccnc3)c(=O)[nH]n2)cc(C)c1O` [Example 48, 6-(4-Hydroxy-3,5-dimethyl-phenyl)-3-oxo-2,3-dihydro-pyridazine-4-carboxylic acid (3-pyridin-3-yl-propyl)-amide] as the compound, how does the IC50 read?
Answer: 36 nM
